The results in this text go back to ChEMBL document CHEMBL5532651, “HDAC specificity and kinase off-targeting by purine-benzohydroxamate anti-hematological tumor agents” (Eur J Med Chem, 2024).

Each structure is given as a SMILES string. The source made the active and inactive calls. No cut-off for these calls is given here. A value given as a limit tells only on which side of the number the result lay.

The nature of data set [1]: Selectivity index, ratio of IC50 for human MCF7 cells to IC50 for human Jurkat cells. In kind it is functional.
Data set [2] in a line: Selectivity index, ratio of IC50 for human MCF7 cells to IC50 for human NAMALVA cells. The format is functional.
Data set [3] is described as follows: Selectivity index, ratio of IC50 for human leukocytes cells to IC50 for human Jurkat cells. In kind it is functional.
Data set [4] deals with Jurkat. In words: Potency index, ratio of Vorinostat IC50 to test compound IC50 for human Jurkat cells assessed as cell growth inhibition incubated for 24 to 72 hrs by MTT assay. The format is functional. To be noted: time 24-72 hrs.
Data set [5] relates to NAMALVA. Put plainly: Potency index, ratio of Vorinostat IC50 to test compound IC50 for human NAMALVA cells assessed as cell growth inhibition incubated for 24 to 72 hrs by MTT assay. To be noted: time 24-72 hrs. The format is functional.
Data set [6] deals with T1, Histone deacetylase 1 (Homo sapiens, UniProt Q13547). In words: Inhibition of full-length recombinant human HDAC1 expressed in baculovirus infected Sf9 cells using RHKK(Ac)AMC as substrate preincubated for 5 to 10 mins followed by substrate addition measured after 2 hrs by fluorescence based assay.
T1 sequence (Q13547 whole entry): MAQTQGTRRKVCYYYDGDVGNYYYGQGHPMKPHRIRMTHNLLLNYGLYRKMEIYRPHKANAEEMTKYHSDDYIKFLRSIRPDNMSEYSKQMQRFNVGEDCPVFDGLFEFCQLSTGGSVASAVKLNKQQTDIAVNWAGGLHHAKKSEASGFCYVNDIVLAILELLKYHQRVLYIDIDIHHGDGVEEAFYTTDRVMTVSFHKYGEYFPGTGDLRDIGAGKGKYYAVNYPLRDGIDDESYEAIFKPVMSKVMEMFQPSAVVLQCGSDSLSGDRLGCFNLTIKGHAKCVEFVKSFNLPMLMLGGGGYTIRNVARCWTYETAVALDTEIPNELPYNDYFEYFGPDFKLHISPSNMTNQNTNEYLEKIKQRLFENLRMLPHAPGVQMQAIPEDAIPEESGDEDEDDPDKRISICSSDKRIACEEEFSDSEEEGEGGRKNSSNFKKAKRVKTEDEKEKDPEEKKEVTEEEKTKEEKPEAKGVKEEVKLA
A further data set has as its system U-937. In words: Inhibition of cell proliferation of human U-937 cells assessed as reduction in Ki-67 expression at IC50 measured after 48 hrs by flow cytometry. In kind it is functional, cell-based.
The test system of data set [7] is NAMALVA. In words: Inhibition of cell proliferation of human NAMALVA cells assessed as reduction in Ki-67 expression at IC50 measured after 48 hrs by flow cytometry. The format is functional, cell-based.
For data set [8], the system named is NAMALVA. In words: Induction of apoptosis in human NAMALVA cells at IC50 measured after 48 hrs by flow cytometry. The format is functional, cell-based.
Data set [9] addresses T2, Protein deacetylase HDAC6 (Homo sapiens, UniProt Q9UBN7).
T2 sequence (Q9UBN7 whole entry): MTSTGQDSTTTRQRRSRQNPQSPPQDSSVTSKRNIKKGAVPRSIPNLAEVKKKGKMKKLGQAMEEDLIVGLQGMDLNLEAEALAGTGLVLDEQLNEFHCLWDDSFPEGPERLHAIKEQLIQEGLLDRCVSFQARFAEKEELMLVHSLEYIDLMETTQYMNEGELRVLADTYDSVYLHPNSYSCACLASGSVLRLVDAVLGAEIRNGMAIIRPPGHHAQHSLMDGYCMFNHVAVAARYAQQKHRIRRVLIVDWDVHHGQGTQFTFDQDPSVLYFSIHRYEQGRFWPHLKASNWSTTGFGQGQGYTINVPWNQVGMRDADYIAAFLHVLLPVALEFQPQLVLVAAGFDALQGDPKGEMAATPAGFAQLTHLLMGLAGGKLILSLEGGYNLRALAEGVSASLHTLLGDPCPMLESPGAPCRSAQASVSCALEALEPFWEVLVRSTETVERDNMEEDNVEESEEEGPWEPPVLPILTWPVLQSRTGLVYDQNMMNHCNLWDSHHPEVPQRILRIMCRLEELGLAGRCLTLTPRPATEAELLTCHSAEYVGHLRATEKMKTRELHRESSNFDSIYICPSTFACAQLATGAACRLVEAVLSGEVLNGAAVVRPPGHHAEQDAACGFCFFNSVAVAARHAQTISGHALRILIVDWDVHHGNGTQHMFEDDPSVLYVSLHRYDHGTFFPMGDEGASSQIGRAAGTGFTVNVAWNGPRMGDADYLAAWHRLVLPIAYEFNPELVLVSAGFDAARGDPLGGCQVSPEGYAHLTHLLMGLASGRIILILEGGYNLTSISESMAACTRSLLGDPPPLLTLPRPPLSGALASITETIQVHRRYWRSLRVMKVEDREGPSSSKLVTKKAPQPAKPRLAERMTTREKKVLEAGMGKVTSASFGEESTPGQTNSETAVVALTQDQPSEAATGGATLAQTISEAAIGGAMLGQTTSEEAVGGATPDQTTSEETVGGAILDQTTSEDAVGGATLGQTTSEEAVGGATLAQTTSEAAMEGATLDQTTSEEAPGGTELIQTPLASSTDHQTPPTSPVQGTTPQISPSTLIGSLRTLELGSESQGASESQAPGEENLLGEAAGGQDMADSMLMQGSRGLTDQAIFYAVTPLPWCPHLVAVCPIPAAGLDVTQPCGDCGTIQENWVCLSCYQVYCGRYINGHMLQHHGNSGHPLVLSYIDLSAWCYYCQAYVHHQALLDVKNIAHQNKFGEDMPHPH
Put plainly: Inhibition of full-length recombinant human HDAC6 expressed in baculovirus infected Sf9 cells using RHKK(Ac)AMC as substrate preincubated for 5 to 10 mins followed by substrate addition measured after 2 hrs by fluorescence based assay.

The target of data set [10] is T1, Histone deacetylase 1. In words: Inhibition of HDAC1 in human U-937 cells assessed as increase in acetyl-histone H3 level at IC50 incubated for 48 hrs by Western blot analysis. The format is cell-based.
Data set [11] concerns the target T1, Histone deacetylase 1. In words: Inhibition of HDAC1 in human NAMALVA cells assessed as increase in acetyl-alpha-tubulin level at IC50 incubated for 48 hrs by Western blot analysis. The format is cell-based.
Data set [12] concerns the target T3, Protein deacetylase HDAC6 (Homo sapiens) (UniProt Q9UBN7).
T3 sequence (whole entry): T2 sequence (Q9UBN7 whole entry)
In words: Inhibition of HDAC6 in human NAMALVA cells assessed as increase in acetyl-histone H3 level at IC50 incubated for 48 hrs by Western blot analysis. The format is cell-based.

Data set [13] deals with T3, Protein deacetylase HDAC6 (Homo sapiens). In words: Inhibition of HDAC6 in human NAMALVA cells assessed as increase in acetyl-alpha-tubulin level at IC50 incubated for 48 hrs by Western blot analysis. The format is cell-based.
The target of a further data set is T4, CYP1A2 (Homo sapiens, UniProt P05177).
T4 sequence (P05177 whole entry): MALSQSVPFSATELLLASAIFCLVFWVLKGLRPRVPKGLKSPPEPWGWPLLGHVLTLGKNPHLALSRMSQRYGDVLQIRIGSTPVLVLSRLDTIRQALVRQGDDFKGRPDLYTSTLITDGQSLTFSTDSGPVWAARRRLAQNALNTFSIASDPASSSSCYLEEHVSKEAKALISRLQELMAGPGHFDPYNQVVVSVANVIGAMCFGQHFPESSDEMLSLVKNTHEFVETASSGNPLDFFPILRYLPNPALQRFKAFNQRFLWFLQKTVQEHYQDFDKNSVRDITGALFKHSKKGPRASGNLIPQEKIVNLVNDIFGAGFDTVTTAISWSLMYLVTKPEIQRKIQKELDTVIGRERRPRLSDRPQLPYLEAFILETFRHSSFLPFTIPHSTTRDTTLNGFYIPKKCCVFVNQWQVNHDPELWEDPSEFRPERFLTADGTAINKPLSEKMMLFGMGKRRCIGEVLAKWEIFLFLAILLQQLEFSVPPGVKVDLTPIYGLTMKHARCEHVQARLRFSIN
In words: Inhibition of CYP1A2 in liver microsomes (unknown origin) at 10 uM incubated for 10 mins relative to control. In kind it is ADME, Microsome.

Data set [14] in a line: Stability in human liver microsome assessed as half life at 1 uM measured for 60 mins by LC-MS/MS analysis. In kind it is ADME. To be noted: liver microsomes.
The nature of data set [15]: Stability in mouse liver microsome assessed as intrinsic clearance at 1 uM measured for 60 mins by LC-MS/MS analysis. The format is ADME. The conditions noted are these: liver microsomes, read-out: CLH.
A further data set relates to HCT-116. In words: cells. The conditions noted are these: Homo sapiens.
The test system of data set [16] is Jurkat. Put plainly: cells. The conditions noted are these: Homo sapiens.
Data set [17] has as its system NAMALVA. Put plainly: cells. To be noted: Homo sapiens.

With `O=C(NO)c1ccc(Cn2cnc3c(Nc4ccc(F)c(Cl)c4)ncnc32)cc1`, the “Ratio IC50” value in data set [1] is listed as 83; in [2] it was 83; in [3] it was “>=100”; in the data set with Jurkat [4], “<=10”; with NAMALVA [5] it was “<=10”. Also, the IC50 was determined as 189 nM on Histone deacetylase 1 [6]; 341 nM in data set [9]; 9300 nM in the data set on HCT-116; 20 nM in the data set on Jurkat [16]; 40 nM in the data set with NAMALVA [17]. The inhibition entry (in the data set with U-937; in the data set with NAMALVA [7]; on Histone deacetylase 1 [10]; on Histone deacetylase 1 [11]; in [12]; in data set [13]) was “Active” throughout. The result in the data set with NAMALVA [8] was Active. The compound also gave an inhibition at 10 min, 10 µM on CYP1A2 of 46%. In addition, the half-life at 1 µM in data set [14] was more than 2 h. In addition, the microsomal CLint at 1 µM in data set [15] came to 20 µL/min/mg.
As for `COc1ccc(Nc2ncnc3c2ncn3Cc2ccc(C(=O)NO)cc2)cc1`, the “Ratio IC50” value in data set [1] is listed as 83; in data set [2], 83; in data set [3], “>=100”; in the data set on Jurkat [4] it was “<=10”; in the data set on NAMALVA [5], “<=10”. In addition, the IC50 at Histone deacetylase 1 [6] was determined as 118 nM; in data set [9], 232 nM; with HCT-116 it was 8300 nM; in the data set on Jurkat [16] it was 50 nM; with NAMALVA [17], 100 nM. Further, the inhibition entry (in the data set with U-937; in the data set with NAMALVA [7]; on Histone deacetylase 1 [10]; on Histone deacetylase 1 [11]; in data set [12]; in data set [13]) was “Active” in each case. For the same compound, the outcome with NAMALVA [8] was Active. The same compound yielded an inhibition at 10 min, 10 µM at CYP1A2 of 50%. In addition, the half-life at 1 µM in [14] was more than 2 h. Moreover, the microsomal CLint at 1 µM in data set [15] was 14 µL/min/mg.
